Measurements from patent US20250145606A1 (Arcus Biosciences, Inc., priority 2023, published 2025).

What was measured:
PDGFRβ = PDGFRβ (Homo sapiens (Human), UniProt P09619); test: Inhibition of PDGFRβ kinase activity (HTRF KinEASE-TK); details: biochemical, HTRF KinEASE-TK
Method in brief: (§1)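 Phosphorylation of biotinylated TK peptide read by HTRF (665/620 nm ratio) after 120 min at rt, following 1 h enzyme–compound preincubation. ATP (2× mix): 20 μM CSF1R, 16 μM c-Kit, 40 μM PDGFRβ, 1 μM PDGFRα; MgCl2 10 mM except c-Kit 5 mM. 22-point 1:2 titration; four-parameter IC50.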

CSF1R = CSF1R (Homo sapiens (Human), UniProt P07333); test: Inhibition of CSF1R kinase activity (HTRF KinEASE-TK); details: biochemical, HTRF KinEASE-TK
Sequence of CSF1R (P07333 20-972): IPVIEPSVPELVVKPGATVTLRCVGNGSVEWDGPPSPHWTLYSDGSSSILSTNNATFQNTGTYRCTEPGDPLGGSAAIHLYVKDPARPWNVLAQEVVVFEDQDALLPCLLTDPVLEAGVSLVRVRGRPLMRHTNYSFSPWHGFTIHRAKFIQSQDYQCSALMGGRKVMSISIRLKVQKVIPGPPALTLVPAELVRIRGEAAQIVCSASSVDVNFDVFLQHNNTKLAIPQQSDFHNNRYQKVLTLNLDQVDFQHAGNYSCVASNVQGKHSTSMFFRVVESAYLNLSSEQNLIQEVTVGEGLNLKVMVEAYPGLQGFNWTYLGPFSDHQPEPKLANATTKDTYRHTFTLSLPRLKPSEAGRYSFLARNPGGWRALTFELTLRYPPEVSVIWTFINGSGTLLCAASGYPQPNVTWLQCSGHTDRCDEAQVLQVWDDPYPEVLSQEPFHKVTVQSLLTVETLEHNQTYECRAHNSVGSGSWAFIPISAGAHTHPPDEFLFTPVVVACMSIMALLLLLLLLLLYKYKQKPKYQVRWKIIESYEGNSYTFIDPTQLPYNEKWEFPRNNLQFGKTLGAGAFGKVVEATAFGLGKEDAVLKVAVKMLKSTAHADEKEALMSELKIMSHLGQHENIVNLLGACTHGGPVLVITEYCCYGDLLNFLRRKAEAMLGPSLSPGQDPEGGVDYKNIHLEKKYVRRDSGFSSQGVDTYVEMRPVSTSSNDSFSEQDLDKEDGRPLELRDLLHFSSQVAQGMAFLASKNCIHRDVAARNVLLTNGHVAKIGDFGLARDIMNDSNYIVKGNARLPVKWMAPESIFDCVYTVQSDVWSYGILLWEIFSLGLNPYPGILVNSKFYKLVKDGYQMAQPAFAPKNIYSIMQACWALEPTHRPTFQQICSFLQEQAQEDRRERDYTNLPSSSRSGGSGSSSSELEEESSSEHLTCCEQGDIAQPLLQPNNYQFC
Method in brief: as §1

c-Kit = c-Kit (Homo sapiens (Human), UniProt P10721); test: Inhibition of c-Kit kinase activity (HTRF KinEASE-TK); type: biochemical; details: biochemical, HTRF KinEASE-TK
Sequence of c-Kit (P10721 26-976): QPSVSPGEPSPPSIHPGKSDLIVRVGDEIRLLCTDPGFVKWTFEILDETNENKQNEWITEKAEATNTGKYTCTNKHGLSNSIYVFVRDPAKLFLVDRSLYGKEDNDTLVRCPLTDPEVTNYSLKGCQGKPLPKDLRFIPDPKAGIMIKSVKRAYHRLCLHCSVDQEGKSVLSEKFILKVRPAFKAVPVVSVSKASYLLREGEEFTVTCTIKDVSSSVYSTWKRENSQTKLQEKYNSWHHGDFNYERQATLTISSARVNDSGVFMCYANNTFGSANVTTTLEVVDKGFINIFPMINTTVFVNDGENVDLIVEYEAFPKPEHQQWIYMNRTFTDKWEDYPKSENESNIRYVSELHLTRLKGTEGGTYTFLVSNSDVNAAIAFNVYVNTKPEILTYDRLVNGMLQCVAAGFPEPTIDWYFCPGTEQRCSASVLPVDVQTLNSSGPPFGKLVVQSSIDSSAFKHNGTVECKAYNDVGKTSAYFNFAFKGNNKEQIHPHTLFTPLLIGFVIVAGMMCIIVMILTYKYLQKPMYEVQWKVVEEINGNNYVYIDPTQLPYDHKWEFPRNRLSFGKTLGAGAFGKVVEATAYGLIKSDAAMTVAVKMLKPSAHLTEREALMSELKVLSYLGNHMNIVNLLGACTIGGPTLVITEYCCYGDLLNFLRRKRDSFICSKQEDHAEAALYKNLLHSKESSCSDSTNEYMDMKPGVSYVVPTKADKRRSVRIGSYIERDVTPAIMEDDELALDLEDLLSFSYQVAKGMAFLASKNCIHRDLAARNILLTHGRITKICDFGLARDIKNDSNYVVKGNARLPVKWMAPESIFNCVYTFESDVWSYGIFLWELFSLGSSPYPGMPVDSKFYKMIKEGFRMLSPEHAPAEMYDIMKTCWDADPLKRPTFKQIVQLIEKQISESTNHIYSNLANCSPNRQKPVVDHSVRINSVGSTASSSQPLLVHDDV
Method in brief: as §1

beagle dog hepatocytes = test: Bioactivation assessment in dog hepatocytes; type: in vitro ADME; details: 5 μM, 4 hours
Protocol: (§2) Bioactivation Assessment Procedure
(§3) Pooled male Sprague Dawley rat (BioIVT), male beagle dog (BioIVT), male cynomolgus monkey (BioIVT), and a 50-donor pool of cryopreserved human hepatocytes (BioIVT) was thawed in pre-warmed 37° C. InVitroGro™ HT media (BioIVT), centrifuged, and resuspended in the InVitroGro™ HI media (BioIVT). The number of viable cells was determined by the Trypan blue exclusion method. The cells were diluted to a concentration of two million viable cells per milliliter (viability >80%) and seeded into round-bottom 96-well plates. The test articles were dissolved in DMSO and further diluted in 50% CH3CN and InVitroGro™ HI media with final concentrations of 0.05% DMSO and 0.5% CH3CN in the incubation mixture. Incubation was performed at a final concentration of one million cells per milliliter and 5 μM test compounds with continuous shaking at 1100 rpm in a 37° C., 5/95% CO2/air incubator with 100% relative humidity. After 4 hours, the samples were quenched by addition of 3 volumes of CH3CN, vortexed for 15 minutes, and centrifuged at 4200 rpm for 15 minutes at 10° C. (Sorvall Legend XTR centrifuge, Thermo Scientific, Langenselbold, Germany). 80 μL of the resulting supernatant was transferred into a new plate and mixed with 160 μL water followed by liquid chromatography-high resolution mass spectrometry (LC-HRMS) analysis.
(§4) Structural assignments of metabolites were determined through mass spectral analysis. The level of bioactivation was estimated based on the relative peak area of bioactivation products to all identified metabolites. The following equation was used: […]
(§5) Bioactivation products included glutathione conjugates, imine methides, quinones, diols, and other relevant metabolites.

[1] = test system: Sprague Dawley rat hepatocytes; test: Bioactivation assessment in rat hepatocytes; type: in vitro ADME; details: 5 μM, 4 hours
Protocol: as §2, §3, §4, §5

PDGFRα = PDGFRα (Homo sapiens (Human), UniProt P16234); test: Inhibition of PDGFRα kinase activity (HTRF KinEASE-TK); details: biochemical, HTRF KinEASE-TK
Sequence of PDGFRα (P16234 24-1089): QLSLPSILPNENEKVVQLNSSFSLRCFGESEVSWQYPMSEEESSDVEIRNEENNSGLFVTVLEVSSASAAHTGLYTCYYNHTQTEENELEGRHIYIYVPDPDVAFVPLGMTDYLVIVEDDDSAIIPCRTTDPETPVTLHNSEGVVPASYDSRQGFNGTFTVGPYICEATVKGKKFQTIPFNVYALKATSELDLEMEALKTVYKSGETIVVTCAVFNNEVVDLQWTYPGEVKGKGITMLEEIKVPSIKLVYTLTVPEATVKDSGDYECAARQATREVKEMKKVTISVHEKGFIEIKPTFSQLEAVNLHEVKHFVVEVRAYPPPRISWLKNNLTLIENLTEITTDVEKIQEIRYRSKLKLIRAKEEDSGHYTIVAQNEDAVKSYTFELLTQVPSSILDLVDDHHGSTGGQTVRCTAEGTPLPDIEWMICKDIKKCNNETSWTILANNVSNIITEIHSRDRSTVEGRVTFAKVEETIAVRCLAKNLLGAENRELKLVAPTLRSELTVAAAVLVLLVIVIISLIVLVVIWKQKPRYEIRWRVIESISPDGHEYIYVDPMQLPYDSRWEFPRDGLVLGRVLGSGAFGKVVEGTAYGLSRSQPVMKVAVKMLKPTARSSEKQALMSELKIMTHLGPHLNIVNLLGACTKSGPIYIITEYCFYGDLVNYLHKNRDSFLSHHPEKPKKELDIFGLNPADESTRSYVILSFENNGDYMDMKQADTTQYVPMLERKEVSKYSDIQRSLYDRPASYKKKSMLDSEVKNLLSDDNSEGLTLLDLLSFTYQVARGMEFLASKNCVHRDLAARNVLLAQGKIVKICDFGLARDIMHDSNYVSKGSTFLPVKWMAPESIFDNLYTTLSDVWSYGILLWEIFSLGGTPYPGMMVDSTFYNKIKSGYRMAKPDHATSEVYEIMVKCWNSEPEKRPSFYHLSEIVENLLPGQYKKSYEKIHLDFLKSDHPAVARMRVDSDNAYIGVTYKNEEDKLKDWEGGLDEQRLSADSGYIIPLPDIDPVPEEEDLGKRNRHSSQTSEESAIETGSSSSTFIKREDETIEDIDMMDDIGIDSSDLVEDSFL
Method in brief: as §1

human hepatocytes = test: Bioactivation assessment in human hepatocytes; type: in vitro ADME; details: 5 μM, 4 hours
Protocol: as §2, §3, §4, §5

[2] = test system: cynomolgus monkey hepatocytes; test: Bioactivation assessment in monkey hepatocytes; type: in vitro ADME; details: 5 μM, 4 hours
Protocol: as §2, §3, §4, §5

Sequence of PDGFRβ (P09619 33-1106): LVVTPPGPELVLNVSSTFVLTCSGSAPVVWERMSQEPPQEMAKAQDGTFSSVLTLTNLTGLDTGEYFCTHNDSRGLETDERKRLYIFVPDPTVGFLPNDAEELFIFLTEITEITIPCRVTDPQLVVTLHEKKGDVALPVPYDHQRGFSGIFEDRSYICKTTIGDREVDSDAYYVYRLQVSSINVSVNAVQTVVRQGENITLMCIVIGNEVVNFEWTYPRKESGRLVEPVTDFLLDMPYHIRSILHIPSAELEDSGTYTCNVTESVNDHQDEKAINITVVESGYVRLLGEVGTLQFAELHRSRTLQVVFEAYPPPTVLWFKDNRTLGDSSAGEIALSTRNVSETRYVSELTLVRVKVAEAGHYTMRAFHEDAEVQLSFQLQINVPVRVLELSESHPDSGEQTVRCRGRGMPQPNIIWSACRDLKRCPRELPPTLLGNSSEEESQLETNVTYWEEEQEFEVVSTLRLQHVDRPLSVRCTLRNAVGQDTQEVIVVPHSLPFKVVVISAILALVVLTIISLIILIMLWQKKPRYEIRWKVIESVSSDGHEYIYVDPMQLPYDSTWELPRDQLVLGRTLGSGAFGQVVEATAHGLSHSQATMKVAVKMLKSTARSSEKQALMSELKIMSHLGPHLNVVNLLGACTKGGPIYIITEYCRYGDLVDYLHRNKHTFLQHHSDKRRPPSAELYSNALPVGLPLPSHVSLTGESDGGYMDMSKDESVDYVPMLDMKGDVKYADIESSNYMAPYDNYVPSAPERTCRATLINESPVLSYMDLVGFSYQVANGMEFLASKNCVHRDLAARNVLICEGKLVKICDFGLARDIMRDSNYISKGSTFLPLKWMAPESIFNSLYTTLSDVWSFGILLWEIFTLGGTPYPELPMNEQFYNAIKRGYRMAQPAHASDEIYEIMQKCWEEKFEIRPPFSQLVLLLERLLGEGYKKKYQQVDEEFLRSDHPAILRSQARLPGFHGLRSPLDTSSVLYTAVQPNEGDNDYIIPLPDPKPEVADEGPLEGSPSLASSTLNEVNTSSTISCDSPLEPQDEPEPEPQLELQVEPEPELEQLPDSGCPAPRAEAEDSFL

| IC50 (PDGFRβ) | IC50 (CSF1R) | IC50 (c-Kit) | Percent of total metabolism via bioactivation, Dog hepatocytes (beagle dog hepatocytes) | Percent of total metabolism via bioactivation, Rat hepatocytes [1] | IC50 (PDGFRα) | Percent of total metabolism via bioactivation, Human hepatocytes (human hepatocytes) | Percent of total metabolism via bioactivation, Monkey hepatocytes [2] | SMILES |
| --- | --- | --- | --- | --- | --- | --- | --- | --- |
| > 1000 nM | > 1000 nM | 100 to 1000 nM | 44% | 88% | > 1000 nM | <1% |  | Cc1ncc(C(=O)Nc2cc(C(=O)Nc3ccc(CC(F)(F)F)cn3)c(F)cc2F)s1 [Example 242, N-[2,4-difluoro-5-[[5-(2,2,2-trifluoroethyl)pyridin-2-yl]carbamoyl]phenyl]-2-methyl-1,3-thiazole-5-carboxamide] |
|  |  |  | 17% | 45% |  | 24% | 31% | Cc1ccc(-c2noc([C@H]3C[C@@H]3F)n2)cc1NC(=O)c1cnc2ccccn12 [labuxtinib, reference compound] |
